According to patent US7420001B2 (Wyeth, priority 2003, dated 2008):

Tests used:
MMP-13 = target: T1, MMP-13 (Homo sapiens, UniProt P45452); experiment: In-vitro fluorescence assay of MMP-13 activity; format: biochemical; conditions: recombinant human catalytic domain of MMP-13; read-out: MMP-13 IC50
T1 construct: made in house

MMP-2 = target: T2, MMP-2 (Homo sapiens, UniProt P08253); experiment: In-vitro fluorescence assay of MMP-2 activity; format: biochemical; conditions: recombinant human MMP-2; read-out: MMP-2 IC50
T2 construct: purchased Oncogene Research Products (Calbiochem) PF023
T2 sequence (P08253 110-660): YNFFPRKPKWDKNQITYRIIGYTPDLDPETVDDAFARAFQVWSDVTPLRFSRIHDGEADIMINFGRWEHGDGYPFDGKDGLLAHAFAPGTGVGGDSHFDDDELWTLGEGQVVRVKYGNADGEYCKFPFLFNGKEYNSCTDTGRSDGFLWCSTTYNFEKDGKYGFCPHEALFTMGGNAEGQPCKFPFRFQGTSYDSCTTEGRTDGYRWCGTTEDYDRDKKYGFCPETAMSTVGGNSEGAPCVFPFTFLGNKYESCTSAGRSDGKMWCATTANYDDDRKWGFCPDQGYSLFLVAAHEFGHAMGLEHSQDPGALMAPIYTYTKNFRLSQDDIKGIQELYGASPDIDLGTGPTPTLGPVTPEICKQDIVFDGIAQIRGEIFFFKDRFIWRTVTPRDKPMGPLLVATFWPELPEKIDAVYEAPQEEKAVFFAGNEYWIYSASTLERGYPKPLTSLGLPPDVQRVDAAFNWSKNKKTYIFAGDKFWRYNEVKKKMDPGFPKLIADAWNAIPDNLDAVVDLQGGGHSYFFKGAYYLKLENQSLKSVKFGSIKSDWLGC

| Compound | IC50 (MMP-13) | IC50 (MMP-2) |
| --- | --- | --- |
| Cc1c(C(=O)Nc2ccc(-c3ccc(S(=O)(=O)N[C@H](C(=O)O)C(C)C)cc3)cc2)oc2cccc(NC(=O)OC(C)(C)C)c12 [Example 59, L-2-{4′-[(4-tert-Butoxycarbonylamino-3-methyl-benzofuran-2-carbonyl)-amino]-biphenyl-4-sulfonylamino}-3-methyl-butyric acid] | 0.032 µM | 3.27 µM |
| Cc1c(C(=O)Nc2ccc(-c3ccc(S(=O)(=O)N[C@H](C(=O)O)C(C)C)cc3)cc2)oc2cccc(N)c12 [Example 61, L-2-{4′-[(4-Amino-3-methyl-benzofuran-2-carbonyl)-amino]-biphenyl-4-sulfonylamino}-3-methyl-butyric acid] | 0.0043 µM | 0.323 µM |
| Cc1c(C(=O)Nc2ccc(-c3ccc(S(=O)(=O)N(C)[C@H](C(=O)O)C(C)C)cc3)cc2)oc2cccc(NS(C)(=O)=O)c12 [Example 64, L-2-({4′-[(4-Methanesulfonylamino-3-methyl-benzofuran-2-carbonyl)-amino]-biphenyl-4-sulfonyl}-methyl-amino)-3-methyl-butyric acid] | 0.063 µM | 6.94 µM |
| Cc1c(C(=O)Nc2ccc(-c3ccc(S(=O)(=O)N[C@H](C(=O)O)C(C)O)cc3)cc2)oc2cccc(NS(C)(=O)=O)c12 (stereo partly drawn) [Example 65, L-3-Hydroxy-2-{4′-[(4-methanesulfonylamino-3-methyl-benzofuran-2-carbonyl)-amino]-biphenyl-4-sulfonylamino}-butyric acid] | 0.0109 µM | 2.47 µM |
| Cc1c(C(=O)Nc2ccc(-c3ccc(S(=O)(=O)N[C@H](C(=O)O)C(C)C)cc3)cc2)oc2cccc(NS(=O)(=O)C(C)C)c12 [Example 69, L-3-Methyl-2-(4′-{[3-methyl-4-(propane-2-sulfonylamino)-benzofuran-2-carbonyl]-amino}-biphenyl-4-sulfonylamino)-butyric acid] | 0.016 µM | 2.34 µM |

More lines, in order of falling IC50 (MMP-13), values ahead:

| IC50 (MMP-13) | IC50 (MMP-2) | Compound |
| --- | --- | --- |
| 0.028 µM | 5 µM | Cc1c(C(=O)Nc2ccc(-c3ccc(S(=O)(=O)N[C@H](C(=O)O)C(C)C)cc3)cc2)oc2cccc(N3CCCC3)c12 [Example 63, L-3-Methyl-2-{4′-[(3-methyl-4-pyrrolidin-1-yl-benzofuran-2-carbonyl)-amino]-biphenyl-4-sulfonylamino}-butyric acid] |
| 0.02 µM | 5.75 µM | Cc1c(C(=O)Nc2ccc(-c3ccc(S(=O)(=O)N[C@H](C(=O)O)C(C)C)cc3)cc2)oc2cccc(NC(=O)C(F)(F)F)c12 [Example 67, L-3-Methyl-2-(4′-{[3-methyl-4-(2,2,2-trifluoro-acetylamino)-benzofuran-2-carbonyl]-amino}-biphenyl-4-sulfonylamino)-butyric acid] |
| 0.012 µM | 1.65 µM | CCS(=O)(=O)Nc1cccc2oc(C(=O)Nc3ccc(-c4ccc(S(=O)(=O)N[C@H](C(=O)O)C(C)C)cc4)cc3)c(C)c12 [Example 68, L-2-{4′-[(4-Ethanesulfonylamino-3-methyl-benzofuran-2-carbonyl)-amino]-biphenyl-4-sulfonylamino}-3-methyl-butyric acid] |
| 0.008 µM | 0.886 µM | CNc1cccc2oc(C(=O)Nc3ccc(-c4ccc(S(=O)(=O)N[C@H](C(=O)O)C(C)C)cc4)cc3)c(C)c12 [Example 60, L-3-Methyl-2-{4′-[(3-methyl-4-methylamino-benzofuran-2-carbonyl)-amino]-biphenyl-4-sulfonylamino}-butyric acid] |
| 0.0065 µM | 5.11 µM | Cc1c(C(=O)Nc2ccc(-c3ccc(S(=O)(=O)N[C@H](C(=O)O)C(C)C)cc3)cc2)oc2cccc(N(C)C)c12 [Example 62, L-2-{4′-[(4-Dimethylamino-3-methyl-benzofuran-2-carbonyl)-amino]-biphenyl-4-sulfonylamino}-3-methyl-butyric acid] |
